Measured values published in patent US20220089592A1, “IMIDAZO[1,2-A]PYRIDINYL DERIVATIVES AS IRAK4 INHIBITORS” (priority 2019, published 2022).

Columns and labels:
IRAK4 [1] = biological target: T1, IRAK4 (Homo sapiens, UniProt Q9NWZ3); experiment: 2-hour 10 μM ATP Biochemical Assay (MesoScale Detection format; IRAK4 phosphorylation of biotin labeled IRAK1 activation loop peptide); settings: IRAK4 MSD BIOCHEMICAL (10 μM ATP) IC50 (μM), 1 nM IRAK4, 2 hours
T1 sequence (Q9NWZ3 1-460): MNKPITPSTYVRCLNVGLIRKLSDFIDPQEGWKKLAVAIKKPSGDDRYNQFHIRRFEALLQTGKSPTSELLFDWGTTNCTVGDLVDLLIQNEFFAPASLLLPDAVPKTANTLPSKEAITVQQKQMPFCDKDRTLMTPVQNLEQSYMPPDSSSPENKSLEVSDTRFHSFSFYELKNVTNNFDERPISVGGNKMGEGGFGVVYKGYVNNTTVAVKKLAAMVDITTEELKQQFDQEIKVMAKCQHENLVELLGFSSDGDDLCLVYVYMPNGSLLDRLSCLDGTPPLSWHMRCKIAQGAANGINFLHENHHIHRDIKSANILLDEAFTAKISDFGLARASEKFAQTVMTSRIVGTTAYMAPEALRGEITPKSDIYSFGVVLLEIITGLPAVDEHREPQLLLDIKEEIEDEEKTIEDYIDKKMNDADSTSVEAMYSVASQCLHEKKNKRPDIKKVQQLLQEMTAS
In short: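 Electrochemiluminescent MSD readout: after streptavidin capture, phosphothreonine on the biotin-labelled IRAK1 activation-loop peptide detected by rabbit antibody and Sulfo-Tag secondary. Phosphorylation ran 2 h with 10 μM ATP before EDTA quench.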

IRAK4 [2] = biological target: T1, IRAK4; experiment: 2-hour 1 mM ATP IRAK4 Biochemical assay (as above, but with 100 pM IRAK4 and 1 mM ATP); settings: IRAK4 MSD BIOCHEMICAL (1 mM ATP) IC50 (μM), 100 pM IRAK4, 2 hours
In short: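 MSD electrochemiluminescence read-out: biotinylated peptide product bound to streptavidin plates, probed with anti-P-Thr rabbit antibody and Sulfo-Tag goat anti-rabbit. Kinase reaction used 1 mM ATP and 100 pM IRAK4 over 2 hours before EDTA quench.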

Row | IC50 (IRAK4 [1]) | IC50 (IRAK4 [2]) | SMILES
1 | 0.001 µM | 0.001 µM | CCOc1cc2nc(C3CCNC3)cn2cc1NC(=O)c1cccc(C(F)(F)F)n1 (centres unmarked) [Example 62, N-(7-ethoxy-2-(pyrrolidin-3-yl)imidazo[1,2-a]pyridin-6-yl)-6-(trifluoromethyl)picolinamide]
2 | 0.001 µM | 0.001 µM | CCOc1cc2nc(C(F)C3CCOC3)cn2cc1NC(=O)c1cccc(C(F)(F)F)n1 (mixture of isomers) [Example 142, N-(7-ethoxy-2-(fluoro(tetrahydrofuran-3-yl)methyl)imidazo[1,2-a]pyridin-6-yl)-6-(trifluoromethyl)picolinamide]
3 | 0.002 µM | 0.007 µM | CCOc1cc2nc(C3(OC)CC3)cn2cc1NC(=O)c1cccc(C(F)F)n1 [Example 128, 6-(difluoromethyl)-N-(7-ethoxy-2-(1-methoxycyclopropyl)imidazo[1,2-a]pyridin-6-yl)picolinamide]
4 | 0.001 µM | 0.001 µM | C[C@@H]1C[C@@H](Oc2cc3nc(C4CCOCC4)cn3cc2NC(=O)c2cccc(C(F)F)n2)CCO1 (relative stereo) [Example 186, 6-(difluoromethyl)-N-(7-(((2R*,4S*)-2-methyltetrahydro-2H-pyran-4-yl)oxy)-2-(tetrahydro-2H-pyran-4-yl)imidazo[1,2-a]pyridin-6-yl)picolinamide]
5 | 0.002 µM | 0.006 µM | CCOc1cc2nc([C@H]3C[C@H](OC(C)C)C3)cn2cc1NC(=O)c1cccc(C(F)F)n1 [Example 135, 6-(difluoromethyl)-N-(7-ethoxy-2-((1r,3r)-3-isopropoxycyclobutyl)imidazo[1,2-a]pyridin-6-yl)picolinamide]
6 | 0.01 µM | 0.023 µM | CCOc1cc2nc(C(C)(C)C#N)cn2cc1NC(=O)c1coc(C(F)F)n1 [Example 359, N-(2-(2-cyanopropan-2-yl)-7-ethoxyimidazo[1,2-a]pyridin-6-yl)-2-(difluoromethyl)oxazole-4-carboxamide]
7 | 0.001 µM | 0.002 µM | O=C(Nc1cn2cc(C3CCOCC3)nc2cc1OC1CCOCC1)c1cccc(C(F)F)n1 [Example 185, 6-(difluoromethyl)-N-(2-(tetrahydro-2H-pyran-4-yl)-7-((tetrahydro-2H-pyran-4-yl)oxy)imidazo[1,2-a]pyridin-6-yl)picolinamide]
8 | 0.009 µM | 0.029 µM | CCOc1cc2nc(C3CCOCC3)cn2cc1NC(=O)c1ccn2c1CCC2 [Example 225, N-(7-ethoxy-2-(tetrahydro-2H-pyran-4-yl)imidazo[1,2-a]pyridin-6-yl)-2,3-dihydro-1H-pyrrolizine-7-carboxamide]
9 | 0.007 µM | 0.055 µM | CCOc1cc2nc(C3CCOCC3)cn2cc1NC(=O)c1ccc(F)cn1 [Example 219, N-(7-ethoxy-2-(tetrahydro-2H-pyran-4-yl)imidazo[1,2-a]pyridin-6-yl)-5-fluoropicolinamide]
10 | 0.001 µM | 0.001 µM | CCOc1cc2nc(C3CCOCC3)cn2cc1NC(=O)c1cccc(C(F)F)n1 [Example 116, 6-(difluoromethyl)-N-(7-ethoxy-2-(tetrahydro-2H-pyran-4-yl)imidazo[1,2-a]pyridin-6-yl)picolinamide]
11 | 0.001 µM | 0.003 µM | CCOc1cc2nc(C3CCOCC3)cn2cc1NC(=O)c1cccc(C)n1 [Example 224, N-(7-ethoxy-2-(tetrahydro-2H-pyran-4-yl)imidazo[1,2-a]pyridin-6-yl)-6-methylpicolinamide]
12 | 0.001 µM | 0.001 µM | CCOc1cc2nc([C@H](C)[C@H]3CCOC3)cn2cc1NC(=O)c1cccc(C(F)(F)F)n1 (single isomer, unassigned) [Example 141]
13 | 0.001 µM | 0.001 µM | CCOc1cc2nc(C3CN(C(C)=O)C3)cn2cc1NC(=O)c1cccc(C(F)F)n1 [Example 81, N-(2-(1-acetylazetidin-3-yl)-7-ethoxyimidazo[1,2-a]pyridin-6-yl)-6-(difluoromethyl)picolinamide]
14 | 0.007 µM | 0.022 µM | CCOc1cc2nc(C3CCOCC3)cn2cc1NC(=O)c1scc(C)c1OC [Example 211, N-(7-ethoxy-2-(tetrahydro-2H-pyran-4-yl)imidazo[1,2-a]pyridin-6-yl)-3-methoxy-4-methylthiophene-2-carboxamide]
15 | 0.004 µM | 0.015 µM | CCOc1cc2nc(C3CC3)cn2cc1NC(=O)c1cccc(C2CCOC2)n1 (centres unmarked) [Example 238, N-(2-cyclopropyl-7-ethoxyimidazo[1,2-a]pyridin-6-yl)-6-(tetrahydrofuran-3-yl)picolinamide]
16 | 0.002 µM | 0.002 µM | CCOc1cc2nc([C@H]3C[C@@H](O)C3)cn2cc1NC(=O)c1cccc(C(F)F)n1 [Example 97]

Row | IC50 (IRAK4 [1]) | IC50 (IRAK4 [2]) | SMILES
17 | 0.006 µM | 0.019 µM | CCOc1cc2nc(CC)cn2cc1NC(=O)c1ccc2c(n1)CCC2 [Example 49, N-(7-ethoxy-2-ethylimidazo[1,2-a]pyridin-6-yl)-6,7-dihydro-5H-cyclopenta[b]pyridine-2-carboxamide]
18 | 0.004 µM | 0.01 µM | CCOc1cc2nc(C3CCOCC3)cn2cc1NC(=O)c1csc(C)n1 [Example 223, N-(7-ethoxy-2-(tetrahydro-2H-pyran-4-yl)imidazo[1,2-a]pyridin-6-yl)-2-methylthiazole-4-carboxamide]
19 | 0.006 µM | 0.019 µM | CCOc1cc2nc(C3CCOCC3)cn2cc1NC(=O)c1cnc2c(c1)CCO2 [Example 240, N-(7-ethoxy-2-(tetrahydro-2H-pyran-4-yl)imidazo[1,2-a]pyridin-6-yl)-2,3-dihydrofuro[2,3-b]pyridine-5-carboxamide]
20 | 0.001 µM | 0.002 µM | CCOc1cc2nc(CCCO)cn2cc1NC(=O)c1cccc(C(F)F)n1 [Example 23, 6-(difluoromethyl)-N-(7-ethoxy-2-(3-hydroxypropyl)imidazo[1,2-a]pyridin-6-yl)picolinamide]
21 | 0.004 µM | 0.021 µM | CCOc1cc2nc(C3CCOCC3)cn2cc1NC(=O)c1ccn(C)n1 [Example 204, N-(7-ethoxy-2-(tetrahydro-2H-pyran-4-yl)imidazo[1,2-a]pyridin-6-yl)-1-methyl-1H-pyrazole-3-carboxamide]
22 | 0.005 µM | 0.016 µM | CCOc1cc2nc(C(C)(C)CO)cn2cc1NC(=O)c1cccc(C(F)F)n1 [Example 17, 6-(difluoromethyl)-N-(7-ethoxy-2-(1-hydroxy-2-methylpropan-2-yl)imidazo[1,2-a]pyridin-6-yl)picolinamide]
23 | 0.004 µM | 0.014 µM | CCOc1cc2nc(CO)cn2cc1NC(=O)c1cccc(C(F)(F)F)n1 [Example 18, N-(7-ethoxy-2-(hydroxymethyl)imidazo[1,2-a]pyridin-6-yl)-6-(trifluoromethyl)picolinamide]
24 | 0.005 µM | 0.019 µM | CCOc1cc2nc(C3CCOCC3)cn2cc1NC(=O)c1ccccc1OC [Example 213, N-(7-ethoxy-2-(tetrahydro-2H-pyran-4-yl)imidazo[1,2-a]pyridin-6-yl)-2-methoxybenzamide]
25 | 0.027 µM | 0.063 µM | CCOc1cc2nc(C3CC3)cn2cc1NC(=O)c1cccc(OC)n1 [Example 117, N-(2-cyclopropyl-7-ethoxyimidazo[1,2-a]pyridin-6-yl)-6-methoxypicolinamide]
26 | 0.003 µM | 0.001 µM | CC(C)Oc1c(NC(=O)c2cnn3cccnc23)cn2cc(C34COC(C)(C3)C4)nc2c1F [Example 577, N-(8-fluoro-7-isopropoxy-2-(1-methyl-2-oxabicyclo[2.1.1]hexan-4-yl)imidazo[1,2-a]pyridin-6-yl)pyrazolo[1,5-a]pyrimidine-3-carboxamide]
27 | 0.008 µM | 0.018 µM | CCOc1cc2nc(C3(CO)CC3)cn2cc1NC(=O)c1cccc(C(F)F)n1 [Example 98, 6-(difluoromethyl)-N-(7-ethoxy-2-(1-(hydroxymethyl)cyclopropyl)imidazo[1,2-a]pyridin-6-yl)picolinamide]
28 | 0.001 µM | 0.004 µM | CCOc1cc2nc(Cn3cncn3)cn2cc1NC(=O)c1cccc(C(F)F)n1 [Example 82, N-(2-((1H-1,2,4-triazol-1-yl)methyl)-7-ethoxyimidazo[1,2-a]pyridin-6-yl)-6-(difluoromethyl)picolinamide]
29 | 0.001 µM | 0.001 µM | CCOc1cc2nc(C34CC(COC)(C3)C4)cn2cc1NC(=O)c1cccc(C(F)(F)F)n1 [Example 523, N-(7-ethoxy-2-(3-(methoxymethyl)bicyclo[1.1.1]pentan-1-yl)imidazo[1,2-a]pyridin-6-yl)-6-(trifluoromethyl)picolinamide]
30 | 0.003 µM | 0.016 µM | CCOc1cc2nc(C3CC3)cn2cc1NC(=O)c1cccc(C(F)(F)F)n1 [Example 2, N-(2-cyclopropyl-7-ethoxyimidazo[1,2-a]pyridin-6-yl)-6-(trifluoromethyl)picolinamide]
31 | 0.001 µM | 0.002 µM | CCOc1cc2nc(C3CCOCC3)cn2cc1NC(=O)c1cccc(C(C)C)n1 [Example 218, N-(7-ethoxy-2-(tetrahydro-2H-pyran-4-yl)imidazo[1,2-a]pyridin-6-yl)-6-isopropylpicolinamide]
